Measurements taken from US9834558B2, “Substituted bridged urea analogs as sirtuin modulators” (GLAXOSMITHKLINE LLC, priority 2013, dated 2017).
Counter-ions that a name gives are not always drawn. Like-named read-outs stand apart in the source and are kept apart here. One block for each compound: values may come before it.

Biological target: T1, SIRT1 (Homo sapiens, UniProt Q96EB6)
T1 sequence (Q96EB6 1-747): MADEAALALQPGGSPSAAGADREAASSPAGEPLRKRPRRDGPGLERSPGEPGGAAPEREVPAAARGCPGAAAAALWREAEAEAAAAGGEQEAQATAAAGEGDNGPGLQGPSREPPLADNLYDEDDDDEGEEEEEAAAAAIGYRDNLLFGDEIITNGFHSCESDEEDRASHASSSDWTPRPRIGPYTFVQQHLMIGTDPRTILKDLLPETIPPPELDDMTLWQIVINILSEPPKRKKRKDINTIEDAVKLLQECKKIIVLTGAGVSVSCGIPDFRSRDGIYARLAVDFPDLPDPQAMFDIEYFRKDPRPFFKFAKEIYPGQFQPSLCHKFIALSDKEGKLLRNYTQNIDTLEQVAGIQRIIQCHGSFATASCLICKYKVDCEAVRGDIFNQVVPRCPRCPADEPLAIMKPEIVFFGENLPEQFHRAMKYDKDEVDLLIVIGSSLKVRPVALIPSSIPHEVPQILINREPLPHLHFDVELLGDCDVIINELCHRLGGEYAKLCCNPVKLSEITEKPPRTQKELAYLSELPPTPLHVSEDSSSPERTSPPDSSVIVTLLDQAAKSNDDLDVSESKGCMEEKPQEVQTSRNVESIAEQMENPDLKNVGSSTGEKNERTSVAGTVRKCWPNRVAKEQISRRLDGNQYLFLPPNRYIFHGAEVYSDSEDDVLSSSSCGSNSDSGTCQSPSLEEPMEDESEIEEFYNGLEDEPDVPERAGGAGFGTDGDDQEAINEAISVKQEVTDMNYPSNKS
Assay: Trp mass spectrometry assay of SIRT1 activation
Type: biochemical
Settings: for TRP Activity (EC1.5): EC1.5 = concentration that results in 150% activation of SIRT1
Excerpt: Mass spectrometry based assays were used to identify modulators of SIRT1 activity. […] The peptide was labeled with the fluorophore STMR (excitation 540 nm/emission 580 nm) at the C-terminus. The sequence of the peptide substrate was based on p53 with several modifications. In addition, the methionine residue naturally present in the sequence was replaced with the norleucine because the methionine may be susceptible to oxidation during synthesis and purification. The Trp based assay utilized a peptide having an amino acid residues as follows: Ac-R-H-K-K(Ac)-W-NH2 (SEQ ID NO: 2).
The Trp mass spectrometry assay was conducted as follows. 0.5 μM peptide substrate and 120 μM βNAD^+ were incubated with 10 nM SIRT1 for 25 minutes at 25° C. in a reaction buffer (50 mM HEPES pH 7.5, […], 1 mM DTT, 0.05% BSA). The SIRT1 protein was obtained by cloning the SirT1 gene into a T7-promoter containing vector, which was then expressed in BL21(DE3) bacterial cells and purified as described in further detail below. Test compound was added at varying concentrations to this reaction mixture and the resulting reactions were monitored. After the 25 minute incubation with SIRT1, 10 μL of 10% formic acid was added to stop the reaction. The resulting reactions were sealed and frozen for later mass spec analysis. The relative SIRT1 activity was then determined by measuring the amount of O-acetyl-ADP-ribose (OAADPR) formed (or, alternatively, the amount of deacetylated Trp peptide generated) by the NAD-dependent sirtuin deacetylation reaction in the presence of varying concentrations of the test compound versus control reactions lacking the test compound. The degree to which the test agent activated deacetylation by SIRT1 was expressed as EC1.5 (i.e., the concentration of compound required to increase SIRT1 activity by 50% over the control lacking test compound), and Percent Maximum Activation (i.e., the maximum activity relative to control (100%) obtained for the test compound).
This time point was the same as that used for test compounds and, within the linear range, the endpoint represents a change in velocity.
For the above assay, SIRT1 protein was expressed and purified as follows. The SirT1 gene was cloned into a T7-promoter containing vector and transformed into BL21(DE3). The protein was expressed by induction with 1 mM IPTG as an N-terminal His-tag fusion protein at 18° C. overnight and harvested at 30,000×g. Cells were lysed with lysozyme in lysis buffer (50 mM Tris-HCl, 2 mM Tris[2-carboxyethyl]phosphine (TCEP), 10 μM ZnCl2, 200 mM NaCl) and further treated with sonication for 10 min for complete lysis. The protein was purified over a Ni-NTA column (Amersham) and fractions containing pure protein were pooled, concentrated and run over a sizing column (Sephadex S200 26/60 global). The peak containing soluble protein was collected and run on an Ion-exchange column (MonoQ). Gradient elution (200 mM-500 mM NaCl) yielded pure protein. This protein was concentrated and dialyzed against dialysis buffer (20 mM Tris-HCl, 2 mM TCEP) overnight. The protein was aliquoted and frozen at −80° C. until further use.
“NT” means not tested; “ND” means not determinable.

[1] = Trp mass spectrometry assay, EC1.5 = concentration of test compound that results in 150% activation of SIRT1
[2] = Trp peptide assay, maximum activity relative to control (100%), read-out: TRP MAX RESP (percent maximum fold activation)
[3] = Trp mass spectrometry assay, concentration of test compound giving 150% activation of SIRT1
[4] = concentration giving 150% activation of SIRT1, Trp peptide substrate
[5] = Trp mass spectrometry assay, percent maximum fold activation of SIRT1, read-out: Tryp % Fold Act

Tryp AVG EC1.5 (μM) [1]: B (B (EC1.5 1-25 μM))
SMILES: O=C(Nc1cccnc1)N1c2nc(-c3cnn(C4CCCC4)c3)ccc2N2CC[C@H]1C2 [Example 587]

TRP Activity (EC1.5) (Trp peptide assay): B (B (EC1.5 1-25 μM))
Emax [2]: > 150%
SMILES: Cc1ccc(-c2cc(C)c3c(n2)N(C(=O)Nc2cccnc2)[C@H]2CCN3C2)cn1 [(9S)-3-methyl-5-(6-methylpyridin-3-yl)-N-(pyridin-3-yl)-1,6,8-triazatricyclo[7.2.1.0^{2,7}]dodeca-2,4,6-triene-8-carboxamide]

Tryp AVG EC1.5 (μM) [1]: B (B (EC1.5 1-25 μM))
SMILES: O=C(Nc1cccnc1)N1c2nc(-c3cnn(-c4ccccc4)c3)ccc2N2CC[C@H]1C2 [Example 549]

Tryp AVG EC1.5 (μM) [1]: A (A (EC1.5<1 μM))
SMILES: Cc1nc(-c2cccc(NC(=O)N3c4nc(-c5cccc(C(F)(F)F)c5)ccc4N4CC[C@H]3C4)c2)cs1 [Example 583]

Tryp AVG EC1.5 (μM) [1]: B (B (EC1.5 1-25 μM))
SMILES: O=C(Nc1ccc2c(c1)CCC2)N1c2nc(-c3cccc(C(F)(F)F)c3)ccc2N2CC[C@H]1C2 [Example 624]

TRP Activity (EC1.5) (Trp peptide assay): C (C (EC1.5>25 μM))
Emax [2]: < 150%
SMILES: Cc1cc(-c2ccc3c(n2)N(C(=O)NCCc2ccccn2)[C@H]2CCN3C2)ccn1 [(9S)-5-(2-methylpyridin-4-yl)-N-[2-(pyridin-2-yl)ethyl]-1,6,8-triazatricyclo[7.2.1.0 {2,7}]dodeca-2(7),3,5-triene-8-carboxamide hydrochloride]

Tryp AVG EC1.5 (μM) [3]: B (B (EC1.5 1-25 μM))
SMILES: CN(C)c1ccc(-c2ccc3c(n2)N(C(=O)Nc2ccccn2)[C@H]2CCN3C2)cn1 [Example 345]

Tryp AVG EC1.5 (μM) [3]: B (B (EC1.5 1-25 μM))
SMILES: COc1cc(NC(=O)N2c3nc(-c4ccnc(N5CCC(C(F)(F)F)C5)c4)ccc3N3CC[C@H]2C3)ncn1 (stereo partly drawn) [Example 368]

Tryp AVG EC1.5 (μM) [4]: A (A (EC1.5<1 μM))
SMILES: O=C(C1CC1)N1CCC(c2cccc(NC(=O)N3c4nc(-c5cccc(C(F)(F)F)c5)ccc4N4CC[C@H]3C4)c2)C1 (stereo partly drawn) [Example 637]

Tryp AVG EC1.5 (μM) [4]: C (C (EC1.5>25 μM))
SMILES: O=C(Nc1ccccn1)N1c2cc(-c3cccc(C(F)(F)F)c3)ccc2N2CC[C@H]1C2 [Example 785]

Tryp AVG EC1.5 (μM) [3]: A (A (EC1.5<1 μM))
Emax [5]: > 150%
SMILES: C[C@@H]1CCN(C)c2ccc(-c3cccc(CC(O)CO)c3)nc2N1C(=O)Nc1ccc(F)cn1 (stereo partly drawn) [Example 356]

Tryp AVG EC1.5 (μM) [1]: A (A (EC1.5<1 μM))
SMILES: O=C(Nc1ccccn1)N1c2nc(-c3cncc(F)c3)ccc2N2CCC[C@H]1C2 [Example 470]

TRP Activity (EC1.5) (Trp peptide assay): C (C (EC1.5>25 μM))
Emax [2]: < 150%
SMILES: Cc1cc(-c2ccc3c(n2)N(C(=O)N2CCO[C@H](C)C2)[C@H]2CCN3C2)ccn1 [(9S)-8-{[(2R)-2-methylmorpholin-4-yl]carbonyl}-5-(2-methylpyridin-4-yl)-1,6,8-triazatricyclo[7.2.1.0 {2,7}]dodeca-2(7),3,5-triene hydrochloride]

TRP Activity (EC1.5) (Trp peptide assay): B (B (EC1.5 1-25 μM))
Emax [2]: > 150%
SMILES: Cc1cc(-c2ccc3c(n2)N(C(=O)Nc2cnn(C)c2)[C@H]2CCCN3C2)ccn1 [(9S)-N-(1-methyl-1H-pyrazol-4-yl)-5-(2-methylpyridin-4-yl)-1,6,8-triazatricyclo[7.3.1.0 {2,7}]trideca-2(7),3,5-triene-8-carboxamide]

Tryp AVG EC1.5 (μM) [1]: B (B (EC1.5 1-25 μM))
SMILES: N#Cc1ccccc1-c1ccc2c(n1)N(C(=O)Nc1ccccn1)[C@H]1CCCN2C1 [Example 449]

TRP Activity (EC1.5) (Trp peptide assay): B (B (EC1.5 1-25 μM))
Emax [2]: > 150%
SMILES: Cn1ccc(-c2ccc3c(n2)N(C(=O)Nc2cnccn2)[C@H]2CCN3C2)n1 [(9S)-5-(1-methyl-1H-pyrazol-3-yl)-N-(pyrazin-2-yl)-1,6,8-triazatricyclo[7.2.1.0 {2,7}]dodeca-2(7),3,5-triene-8-carboxamide]

Tryp AVG EC1.5 (μM) [1]: B (B (EC1.5 1-25 μM))
SMILES: CC(C)(C)OC(=O)N1CCc2ccc(NC(=O)N3c4nc(-c5cccc(C(F)(F)F)c5)ccc4N4CC[C@H]3C4)cc2C1 [Example 609]

Tryp AVG EC1.5 (μM) [4]: A (A (EC1.5<1 μM))
SMILES: CN(C)c1ccnc(NC(=O)N2c3nc(-c4cccc(C(F)(F)F)c4)ccc3N3CC[C@H]2C3)n1 [Example 747]

Tryp AVG EC1.5 (μM) [1]: B (B (EC1.5 1-25 μM))
Emax [5]: > 150%
SMILES: Cc1c(-c2ccc3c(n2)C(C(=O)Nc2cnccn2)[C@H]2CCN3C2)cnn1C (stereo partly drawn) [Example 532]

Tryp AVG EC1.5 (μM) [4]: A (A (EC1.5<1 μM))
SMILES: CC(=O)c1ccc(NC(=O)N2c3nc(-c4cccc(C(F)(F)F)c4)ccc3N3CC[C@H]2C3)cc1 [Example 668]

TRP Activity (EC1.5) (Trp peptide assay): C (C (EC1.5>25 μM))
Emax [2]: < 150%
SMILES: Cc1cc(-c2ccc3c(n2)N(C(=O)N2CCO[C@@H](C)C2)[C@H]2CCN3C2)ccn1 [(9S)-8-{[(2S)-2-methylmorpholin-4-yl]carbonyl}-5-(2-methylpyridin-4-yl)-1,6,8-triazatricyclo[7.2.1.0 {2,7}]dodeca-2(7),3,5-triene hydrochloride]

Tryp AVG EC1.5 (μM) [1]: A (A (EC1.5<1 μM))
SMILES: NCc1cn(-c2cccc(NC(=O)N3c4nc(-c5cccc(C(F)(F)F)c5)ccc4N4CC[C@H]3C4)c2)nn1 [Example 606]

TRP Activity (EC1.5) (Trp peptide assay): B (B (EC1.5 1-25 μM))
Emax [2]: > 150%
SMILES: Cc1ccc(-c2ccc3c(n2)N(C(=O)Nc2cccnc2)[C@H]2CCN3C2)c(C)n1 [(9S)-5-(2,6-dimethylpyridin-3-yl)-N-(pyridin-3-yl)-1,6,8-triazatricyclo[7.2.1.0 {2,7}]dodeca-2(7),3,5-triene-8-carboxamide]

Tryp AVG EC1.5 (μM) [3]: C (C (EC1.5>25 μM))
SMILES: Cc1noc(C)c1-c1ccc2c(n1)N(C(=O)Nc1cnccn1)[C@H]1CCN2C1 [Example 413]

TRP Activity (EC1.5) (Trp peptide assay): A (A (EC1.5<1 μM))
Emax [2]: > 150%
SMILES: O=C(Nc1ccnc(OC[C@@H](O)CO)n1)N1c2nc(-c3cccc(C(F)(F)F)c3)ccc2N2CC[C@H]1C2 [(9S)-N-{2-[(2S)-2,3-dihydroxypropoxy]pyrimidin-4-yl}-5-[3-(trifluoromethyl)phenyl]-1,6,8-triazatricyclo[7.2.1.0 {2,7}]dodeca-2(7),3,5-triene-8-carboxamide]

Tryp AVG EC1.5 (μM) [4]: A (A (EC1.5<1 μM))
SMILES: NCc1cccc(NC(=O)N2c3nc(-c4cccc(C(F)(F)F)c4)ccc3N3CCC[C@H]2C3)c1 [Example 757]

Tryp AVG EC1.5 (μM) [4]: A (A (EC1.5<1 μM))
SMILES: O=C(Nc1cnccn1)N1c2nc(-c3cccc(C(F)(F)F)c3)ccc2N2C[C@@H](O)[C@H]1C2 [Example 645]

Tryp AVG EC1.5 (μM) [4]: A (A (EC1.5<1 μM))
SMILES: O=C(Nc1nnc(-c2ccccc2)s1)N1c2nc(-c3cccc(C(F)(F)F)c3)ccc2N2CC[C@H]1C2 [Example 648]

Tryp AVG EC1.5 (μM) [1]: B (B (EC1.5 1-25 μM))
SMILES: O=C(Nc1cccnc1)N1c2nc(-c3cncc(F)c3)ccc2N2CCC1CC2 [Example 572]
